Laboratory results taken from patent publication US10414797B2, “Gelatinase inhibitors and use thereof” (Iproteos S.L, priority 2015, dated 2019).

Assays:
MMP-3 = MMP-3 (Homo sapiens (Human), UniProt P08254); assay: MMP-3 inhibition assay (fluorogenic peptide substrate); type: biochemical; conditions: recombinant MMP-3 7.7 nM, Mca-RPKPVE-Nval-WRK(Dnp)-NH2 10 μM, 4 hours at room temperature; tested at 1, 10, 100 and 200 μM
Description: (§1) All the experiments were done in 1× reaction buffer, which was obtained from a 10× reaction buffer solution. The content of the 10× reaction buffer was: 50 mL of 0.5 M Tris-HCl, 1.5 M NaCl, 50 mM CaCl2 and 2 mM sodium azide at pH 7.6. To obtain the 1× reaction buffer 4 mL of the 10× reaction buffer were diluted in 36 mL of H2O.
Recombinant MMP-3 expressed in E. Coli was obtained from Merck-Millipore (catalog number 44217). Mca-RPKPVE-Nval-WRK(Dnp)-NH2 (fluorogenic peptide substrate) was obtained from R&D Systems (catalog number ES002).
Preparation of the MMP-3 for the activity assay: MMP-3 was provided as a stock solution (0.1 mg/mL). The enzyme was diluted in water to a final concentration of 0.005 mg/mL.
MMP-3 peptide substrate was provided as a stock solution in DMSO (4.5 mM). For the assay, the substrate was diluted 1× reaction buffer to a concentration of 100 μM.
(§2) Procedure: The enzymatic assays were performed in 96-well microtiter plate, which allowed simultaneous monitoring of multiple reactions. For each reaction, 84.6 μL of 1× reaction buffer (pH 7.6), 3.4 μL of MMP-3 (final concentration 7.7 nM) and 2 μL of the corresponding new compound were added to each well. A stock solution of new compound was prepared in DMSO (100 mM), and dilutions were prepared from this stock solution with DMSO. Finally, to the mixture contained in each well 10 μL of the substrate were added (final concentration 10 μM). The reaction was incubated for 4 hours at room temperature in an orbital shaker (90 rpm).
(§3) The inhibitory activity of the new compound was measured fluorimetrically. The excitation and emission wavelengths were 320 and 405 nm, respectively.
(§4) Inhibitory activity at several concentration points (1, 10, 100 and 200 μM) were measured for each compound. The inhibitory activity on MMP-1, MMP-3 and MMP-7 was calculated according to eq 1 and The IC50 value was calculated as explained above for MMP-2 and MMP-9.

MMP-7 = MMP-7 (Homo sapiens (Human), UniProt P09237); assay: MMP-7 inhibition assay (fluorogenic peptide substrate); type: biochemical; conditions: recombinant MMP-7 8.3 nM, Mca-PLGL-Dpa-AR-NH2 10 μM, 4 hours at room temperature; tested at 1, 10, 100 and 200 μM
Description: as §1
Recombinant MMP-7 expressed in E. Coli was obtained from Merck-Millipore (catalog number 44270). Mca-PLGL-Dpa-AR-NH2 (fluorogenic peptide substrate) was obtained from R&D Systems (catalog number ES001).
Preparation of the MMP-7 for the activity assay: MMP-7 was provided as a stock solution (2.1 mg/mL). The enzyme was diluted in water to a final concentration of 0.005 mg/mL.
MMP-7 peptide substrate was provided as a solid (1 mg). A 4 mM stock solution of the substrate in DMSO was obtained by adding 214.7 μL of DMSO. After which, a 100 μM solution of substrate was prepared in 1× reaction buffer.
as §2, with “MMP-7” for “MMP-3”, “8.3” for “7.7”
as §3, §4

[1] = Parallel artificial membrane permeability assay (PAMPA), Blood-Brain Barrier; type: in vitro ADME; conditions: initial concentration 200 μM, pH 7.4, 4 hours; for Papp at 4 h, 200 µM: pig, read-out: Effective permeability Pe
Description: Parallel Artificial Membrane Permeability Assay (PAMPA)
Parallel artificial membrane permeability assay (PAMPA) described in Kansy et al., J. M. Chem. 1998; 41(7):1007-10 was used here to determine the capacity of compounds to cross the Blood-Brain Barrier (BBB) by passive diffusion (Di L et al., Eur. J. Med. Chem. 2003; 38(3):223-32). The effective permeability (Pe) of the compounds was measured at an initial concentration of 200 μM. The buffer solution was prepared from a commercial concentrated one following the manufacturer's instructions. pH was adjusted to 7.4 using a 0.5 M NaOH solution. A stock solution of new compound was prepared in DMSO and diluted with buffer solution to a final 200 μM concentration (0.5% DMSO content). The PAMPA sandwich was separated and each donor well was filled with […] of the compound solution. The acceptor plate was placed into the donor plate, ensuring that the underside of the membrane was in contact with buffer. 4 μL of the mixture of phospholipids (20 mg/ml) in dodecane was added to the filter of each well, and 200 μL of buffer solution was added to the each acceptor well. The plate was covered and incubated at room temperature in a saturated humidity atmosphere for 4 hours under orbital agitation at 100 rpm. After 4 hours, the contents of the acceptor and donor compartments were analyzed by HPLC: 150 μL of each well from the donor plate and 150 μL of each well from the acceptor plate were transferred to HPLC vials, injecting each sample into a reverse-phase C18 column (150 mm×4.6 mm×5 μm, 100 Å) (100 μL/injection from the acceptor wells, 10 μL/injection from the donor wells and for t0 references). Transport was also confirmed using mass spectrometry (MALDI-TOF).
The phospholipid mixture used was a porcine polar brain lipid extract, provided by Avanti polar lipids, with the following composition: 12.6% phosphatidylcholine (PC), 33.1% phosphatidylethanolamine (PE), 18.5% phosphatidylserine (PS), 4.1% phosphatidylinositol (PI), 0.8% phosphatidic acid and 30.9% of other compounds.
The effective permeability (Pe) after 4 hours was calculated using equation 2 and the percentage of transport (T %) was calculated using equation 3: […]
Ca(t) is the compound concentration in the acceptor well at time t
And Cd(t0) is the compound concentration in the donor well at t0.

MMP-3, sequence (P08254 100-477): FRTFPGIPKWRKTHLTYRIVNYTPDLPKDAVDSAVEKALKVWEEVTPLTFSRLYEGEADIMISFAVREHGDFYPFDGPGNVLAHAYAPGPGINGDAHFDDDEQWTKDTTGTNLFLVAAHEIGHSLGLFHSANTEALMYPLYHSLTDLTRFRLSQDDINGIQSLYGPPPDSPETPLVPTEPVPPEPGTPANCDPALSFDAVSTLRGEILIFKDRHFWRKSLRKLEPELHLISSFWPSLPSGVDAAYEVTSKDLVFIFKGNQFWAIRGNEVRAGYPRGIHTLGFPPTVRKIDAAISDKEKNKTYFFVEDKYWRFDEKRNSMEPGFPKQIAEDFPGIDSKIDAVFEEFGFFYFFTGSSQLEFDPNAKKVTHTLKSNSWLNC
MMP-7, sequence (P09237 95-267): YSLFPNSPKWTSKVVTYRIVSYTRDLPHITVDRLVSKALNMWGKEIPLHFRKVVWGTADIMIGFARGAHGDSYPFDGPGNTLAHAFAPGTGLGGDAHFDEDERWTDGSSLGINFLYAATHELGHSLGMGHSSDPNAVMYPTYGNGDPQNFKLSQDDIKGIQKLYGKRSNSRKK

Structure (SMILES) | IC50 (MMP-3) [µM] | IC50 (MMP-7) [µM] | percentage of transport % T [1] [%] | Papp at 4 h, 200 µM [1] [×10⁻⁶ cm/s]
CCC(C)[C@@H](C(=O)N[C@@H](CCNC(=O)c1cc(F)cc(F)c1)C(=O)NO)N(C)C(=O)[C@@H]1CCCN1C(C)=O (stereo partly drawn) [Example 2, (2S)-1-acetyl-N-[(1S)-1-[[(1S)-3-[(3,5-difluorobenzoyl)amino]-1-(hydroxycarbamoyl)propyl]carbamoyl]-2-methyl-butyl]-N-methyl-pyrrolidine-2-carboxamide] | 19.2 | 31.4 | 0.8 | 0.2
CCC(C)[C@@H](C(=O)N[C@@H](CCNC(=O)c1cc(F)cc(F)c1)C(=O)NO)N(C)C(=O)[C@@H]1CCCN1C(=O)CCCOc1ccccc1 (stereo partly drawn) [Example 9, (2S)—N-[(1S)-1-[[(1S)-3-[(3,5-difluorobenzoyl)amino]-1-(hydroxycarbamoyl)propyl]carbamoyl]-2-methyl-butyl]-N-methyl-1-(4-phenoxybutanoyl)pyrrolidine-2-carboxamide] | 3.2 | 40.3 | 9.9 | 5.2
CCC(C)[C@@H](C(=O)N[C@@H](CCNC(=O)c1cc(F)cc(F)c1)C(=O)NO)N(C)C(=O)[C@@H]1CCCN1C(=O)CC(C)C (stereo partly drawn) [Example 5, (2S)—N-[(1S)-1-[[(1S)-3-[(3,5-difluorobenzoyl)amino]-1-(hydroxycarbamoyl)propyl]carbamoyl]-2-methyl-butyl]-N-methyl-1-(3-methylbutanoyl)pyrrolidine-2-carboxamide] | 25.7 | 3.48 | 7.6 | 1.9
CCCC(=O)N1CCC[C@H]1C(=O)N(C)[C@H](C(=O)N[C@@H](CCNC(=O)c1cc(F)cc(F)c1)C(=O)NO)C(C)CC (stereo partly drawn) [Example 4, (2S)-1-butanoyl-N-[(1S)-1-[[(1S)-3-[(3,5-difluorobenzoyl)amino]-1-(hydroxycarbamoyl)propyl]carbamoyl]-2-methyl-butyl]-N-methyl-pyrrolidine-2-carboxamide] | 13.3 | 4.42 | 3.1 | 0.74
CCCC(CCC)C(=O)N1CCC[C@H]1C(=O)N(C)[C@H](C(=O)N[C@@H](CCNC(=O)c1cc(F)cc(F)c1)C(=O)NO)C(C)CC (stereo partly drawn) [Example 8, (2S)—N-[(1S)-1-[[(1S)-3-[(3,5-difluorobenzoyl)amino]-1-(hydroxycarbamoyl)propyl]carbamoyl]-2-methyl-butyl]-N-methyl-1-(2-propylpentanoyl)pyrrolidine-2-carboxamide] | 3.81 | 4.1 | 9.0 | 4.7
CCC(C)[C@@H](C(=O)N[C@@H](CCNC(=O)c1cc(F)cc(F)c1)C(=O)NO)N(C)C(=O)[C@@H]1CC(F)(F)CN1C(=O)CCCOc1ccccc1 (stereo partly drawn) [Example 10, (2S)—N-[(1S)-1-[[(1S)-3-[(3,5-difluorobenzoyl)amino]-1-(hydroxycarbamoyl)propyl]carbamoyl]-2-methyl-butyl]-4,4-difluoro-N-methyl-1-(4-phenoxybutanoyl)pyrrolidine-2-carboxamide] | 160 | 8.08 | 13.6 | 7.6
CCCCCC(=O)N1CC(F)(F)C[C@H]1C(=O)N(C)[C@H](C(=O)N[C@@H](CCNC(=O)c1cc(F)cc(F)c1)C(=O)NO)C(C)CC (stereo partly drawn) [Example 7, (2S)—N-[(1S)-1-[[(1S)-3-[(3,5-difluorobenzoyl)amino]-1-(hydroxycarbamoyl)propyl]carbamoyl]-2-methyl-butyl]-4,4-difluoro-1-hexanoyl-N-methyl-pyrrolidine-2-carboxamide] | 22.5 | 7.71 | 19.0 | 11.3
